Assay results: BigSolDB 2.1

CC(C)(c1cc(Br)c(O)c(Br)c1)c1cc(Br)c(O)c(Br)c1
solubility (mole fraction)
Conditions	in ethanol	in ethyl acetate	in isopropanol	in methanol	in n-butanol	in n-butyl acetate	in n-pentanol	in n-propanol	in sec-butanol
298.15 K	0.0511	0.139	0.0242	0.0499	0.0511	0.142	0.0567	0.0452	0.0262
303.15 K	0.0516	0.139	0.0259	0.0511	0.0522	0.142	0.058	0.046	0.0288
308.15 K	0.0534	0.141	0.0284	0.0524	0.0542	0.144	0.0596	0.0476	0.0321
313.15 K	0.0558	0.144	0.031	0.0546	0.0573	0.146	0.0609	0.0502	0.0364
318.15 K	0.0577	0.147	0.0343	0.0564	0.0602	0.148	0.0634	0.0522	0.0399
323.15 K	0.0616	0.152	0.0381	0.0585	0.0642	0.151	0.0669	0.0553	0.045
328.15 K	0.0642	0.157	0.0435	0.0615	0.0678	0.155	0.0705	0.059	0.0502
333.15 K	0.0693	0.161	0.0484	–	0.0717	0.159	0.0752	0.063	0.056
